We go through nine compounds from patent publication US20260022143A1, “Cyclic Peptide Inhibitors of IL-23” (JANSSEN PHARMACEUTICA NV, priority 2022, published 2026).

SMILES strings stand for the structures. Starred links: 1 amine or outer side, 2 acyl side, 3 side chain; linkers in the order of their positions; H or OH if unused. Positions of bridges follow the written chain, without caps; N, C: chain ends. Non-standard residues stand in square brackets, D forms with d. Residues, ends and D or L forms follow the SMILES beside them. *: point of attachment. X36 = C[N+]1(CCCc2cn(-c3ccc(C[C@H](N[*:1])C(=O)[*:2])cc3)nn2)CCOCC1; Me3N+(CH2)2O(CH2)2O(CH2)2CO = C[N+](C)(C)CCOCCOCCC(=O)*; X67 = COCc1cn(-c2ccc(C[C@H](N[*:1])C(=O)[*:2])cc2)nn1; CH2CH2OCH2CH2OCH2CH2NMe3+ = C[N+](C)(C)CCOCCOCC*; Trp(7-Me) = Cc1cccc2c(C[C@H](N)C(=O)O)c[nH]c12; 2Nal = N[C@@H](Cc1ccc2ccccc2c1)C(=O)O; AEF = NCCOc1ccc(C[C@H](N)C(=O)O)cc1; dNMeY = CN[C@H](Cc1ccc(O)cc1)C(=O)O; 3Pal = N[C@@H](Cc1cccnc1)C(=O)O; Lys(Me) = CNCCCC[C@H](N)C(=O)O; Pen = CC(C)(S)[C@H](N)C(=O)O; αMeK = C[C@](N)(CCCCN)C(=O)O; X70 = C[N+](C)(C)CCO/N=C\C*; dOrn = NCCC[C@@H](N)C(=O)O; X86 = C[N+]1(C)CCCC(C*)C1; Thp = NC1(C(=O)O)CCOCC1; Sar = CNCC(=O)O

A short description of the data set: Exposed Polar Surface Area (EPSA). The data set is classed as physicochemical. The note with it: SFC on Chirex 3014 column; sample 1 mM DMSO stock; read-out: EPSA. The source says: Exposed Polar Surface Area (EPSA) is an experimental descriptor of molecular polarity obtained from chromatographic retention in supercritical fluid chromatography (SFC).
The stationary phase (Chirex 3014(S)-valine and (R)-1-(alpha-naphthyl) ethylamine) was selected for its balance of lipophilic and polar attributes and its capacity to separate compounds with wide polarity differences. The mobile phase consists of methanol (+Ammonium formate) and CO2. Polar compounds are retained stronger under these conditions and a low-slope gradient of methanol achieves elution based on increasing polarity of the mobile phase. Results are normalized using calibration standards generating a linear relationship between retention times and EPSA values. The unit of EPSA is Å^2.
Along with the measurement of compounds of interest, a series of 8 calibration standards (see Materials) are analyzed generating a linear relationship between retention times and EPSA value. The 8 compounds used as calibration standard have their own EPSA value defined by G. Goetz based on the comparison with TPSA (see G. Goetz, L. Philippe and M. Shapiro, “EPSA: A novel supercritical fluid chromatography technique enabling the design of permeable cyclic peptides,” ACS Med. Chem. Lett., vol. 5, pp. 1167-1172, 2014 for more information). The slope from the linear relationship between EPSA values of these eight compounds and their retention times is used to determine the EPSA value of each compound of interest that's measured under the same condition using the equation as below: […]
The mixture of calibrations standard is reinjected every 20 compounds to validate the stability of the retention time.
The mobile phase modifier consists of ammonium formate LC_MS grade (>99%) (CAS number 540-69-2) diluted to 20 mM in HPLC grade Methanol (MeOH, CAS number 67-56-1) and liquid C02 SFC grade (CAS number 124-38-9).
Antipyrine (CAS number: 60-80-0) Chlorpromazine hydrochloride (CAS number: 69-09-0), desipramine hydrochloride (CAS number: […]), pindolol (CAS Number: 13523-86-9), diclofenac (CAS number: 15307-79-6)), m-nitro benzoic acid (CAS number: 121-92-6), bumetanide (CAS number: 28395-03-1), furosemide (CAS number: 54-31-9) were purchased from Sigma Aldrich (Steihneim, Germany).
All analyses were performed on a ultra performance convergence chromatography (UPC™) apparatus (Waters, Milford, MA, USA) equipped with a sample manager, a binary solvent delivery pump (BSM), a column manager, a convergence manager (automated back pressure regulator), a photo diode array detector (DAD) with a high pressure flow cell, and a mass detector simple quadrupole QDa. After the UV detector, the effluent of the SFC was mixed with an eluent consist of mixture MeOH/water (+0.3% Ammonia) 95/5 delivered by a make up pump with a flow rate of 0.4 mL/min and then split to the QDa using a splitter. The instrument was controlled, and data were processed with Masslynx 4.1.
The Analyses were performed using a 4.6×50 mm Chirex 3014(S)-valine and (R)-1-(alpha- naphthyl) ethylamine column (Phenomenex, Le Pecq, France) with 5 um particle and 100A pore size. The flow rate was 4 mL/min with the outlet pressure set to 14 MPa. The injection volume was 2 μL. the mobile phase composition was varied from 5% to 60% modifier at 20%/ min in a linear gradient, holding at 60% for 1.45 min and reverting to the original 5% until the end of the run. Data are acquired during 5 min. An equilibration time of 1 min is applied between 2 injections resulting in an injection every 6 min. each sample is analyzed in duplicate, resulting in a sample to sample turnaround time of 12 min.
The column temperature was set to 35° C. The mass detector was used in full scan from 100 to 800 for small molecules and from 500 to 1200 for peptides.
Each sample is delivered by compound logistics from DMSO stock solution without dilution. The concentration is 1 mM and the volume is 60 μL.
As to `CC(=O)NCCCC[C@@H]1NC(=O)[C@H](Cc2c[nH]c3c(C)cccc23)NC(=O)[C@H]([C@@H](C)O)NC(=O)[C@H](CC(N)=O)NC(=O)[C@@H](NC(C)=O)C(C)(C)SSC(C)(C)[C@@H](C(=O)N[C@@H](Cc2ccc(OCCN)cc2)C(=O)N[C@@H](Cc2ccc3ccccc3c2)C(=O)N[C@@](C)(CCCCN)C(=O)N[C@@H](CCCCNC(C)=O)C(=O)N[C@@H](CC(N)=O)C(=O)N[C@H](Cc2c[nH]cn2)C(=O)N(C)[C@H](Cc2ccc(O)cc2)C(N)=O)NC1=O` [compound 26, MeCO-Pen(3)-N-T-7MeW-K(Ac)-Pen(3)-AEF-2Nal-aMeK-K(Ac)-N-h-NMeDTyr-CONH2] (Ac-[Pen]NT[Trp(7-Me)]K(Ac)[Pen][AEF][2Nal][αMeK]K(Ac)N[dH][dNMeY]-NH2; disulfide 1-6 (inferred)), the EPSA was determined as 148 A^2.

For the compound `CC(=O)NCCCC[C@@H]1NC(=O)[C@H](Cc2c[nH]c3c(C)cccc23)NC(=O)[C@H]([C@@H](C)O)NC(=O)[C@H](CC(N)=O)NC(=O)[C@@H](NC(C)=O)C(C)(C)SSC(C)(C)[C@@H](C(=O)N[C@@H](Cc2ccc(-n3cc(CCC[N+]4(C)CCOCC4)nn3)cc2)C(=O)N[C@@H](Cc2ccc3ccccc3c2)C(=O)NC2(C(=O)N[C@@H](CCC(=O)O)C(=O)N[C@@H](CC(N)=O)C(=O)N[C@@H](Cc3cccnc3)C(=O)N(C)CC(N)=O)CCOCC2)NC1=O` [compound 453] (Ac-[Pen]NT[Trp(7-Me)]K(Ac)[Pen][X36][2Nal][Thp]EN[3Pal][Sar]-NH2; disulfide 1-6), the EPSA was determined as 173 A^2.

With `CC(=O)N[C@@H]1C(=O)N[C@@H](CC(=O)N(C)C)C(=O)N[C@@H]([C@@H](C)O)C(=O)N[C@@H](Cc2c[nH]c3c(C)cccc23)C(=O)N[C@@H](CCCCN(C)C(C)=O)C(=O)N[C@H](C(=O)N[C@@H](Cc2ccc(OCCOCCOCC[N+](C)(C)C)cc2)C(=O)N[C@@H](Cc2ccc3ccccc3c2)C(=O)NC2(C(=O)N[C@@H](CCCCN(C)C(=O)CCOCCOCC[N+](C)(C)C)C(=O)N[C@@H](CC(N)=O)C(=O)N[C@@H](Cc3cccnc3)C(=O)N(C)CC(=O)N(C)C)CCOCC2)C(C)(C)SSC1(C)C` [compound 218, MeCO-Pen(3)-N(N(Me)2)-T-7MeW-K(NMeAc)-Pen(3)-APEG3F-2Nal-THP-K(NMePEG3a)-N-3Pya-Sar-CON(Me)2] (Ac-[Pen]D(NMe2)T[Trp(7-Me)][Lys(Me)](Ac)[Pen]Y(CH2CH2OCH2CH2OCH2CH2NMe3+)[2Nal][Thp][Lys(Me)](Me3N+(CH2)2O(CH2)2O(CH2)2CO)N[3Pal][Sar]-NMe2; disulfide 1-6), the EPSA came out at 136 A^2.

As to `CC(=O)NCCCC[C@@H]1NC(=O)[C@H](Cc2c[nH]c3c(C)cccc23)NC(=O)[C@H]([C@@H](C)O)NC(=O)[C@H](CC(N)=O)NC(=O)[C@@H](NC(C)=O)C(C)(C)SSC(C)(C)[C@@H](C(=O)N[C@@H](Cc2ccc(OCCN)cc2)C(=O)N[C@@H](Cc2ccc3ccccc3c2)C(=O)N[C@@](C)(CCCCN)C(=O)N[C@@H](CCCCNC(C)=O)C(=O)N[C@@H](CC(N)=O)C(=O)N[C@H](CCCN)C(=O)N(C)[C@H](Cc2ccc(O)cc2)C(N)=O)NC1=O` [compound 18, MeCO-Pen(3)-N-T-7MeW-K(Ac)-Pen(3)-AEF-2Nal-aMeK-K(Ac)-N-orn-NMeDTyr-CONH2] (Ac-[Pen]NT[Trp(7-Me)]K(Ac)[Pen][AEF][2Nal][αMeK]K(Ac)N[dOrn][dNMeY]-NH2; disulfide 1-6), the EPSA worked out at 219 A^2.

With `CC(=O)NCCCC[C@@H]1NC(=O)[C@H](Cc2c[nH]c3c(-c4cccc(NC(C)=O)c4)cccc23)NC(=O)[C@H]([C@@H](C)O)NC(=O)[C@H](CC(N)=O)NC(=O)[C@@H](NC(C)=O)C(C)(C)SSC(C)(C)[C@@H](C(=O)N[C@@H](Cc2ccc(OCCNC(=N)N)cc2)C(=O)N[C@@H](Cc2ccc3ccccc3c2)C(=O)NC2(C(=O)N[C@@H](CCCCN(C)C(C)=O)C(=O)N[C@@H](CC(N)=O)C(=O)N[C@@H](Cc3cncc(C)c3)C(=O)N(C)CC(N)=O)CCOCC2)NC1=O` [compound 482, MeCO-Pen(3)-N-T-7(3NAcPh)W-K(Ac)-Pen(3)-AEF(G)-2Nal-THP-K(NMeAc)-N-5MePyridinAla-Sar-CONH2], the EPSA is 180 A^2.

In the case of `CC(=O)NCCCC[C@@H]1NC(=O)[C@H](Cc2c[nH]c3c(C)cccc23)NC(=O)[C@H]([C@@H](C)O)NC(=O)[C@H](CC(N)=O)NC(=O)[C@@H](NC(C)=O)C(C)(C)SSC(C)(C)[C@@H](C(=O)N[C@@H](Cc2ccc(OCCNC(=O)CCOCCOCC[N+](C)(C)C)cc2)C(=O)N[C@@H](Cc2ccc3ccccc3c2)C(=O)NC2(C(=O)N[C@@H](CNC(C)=O)C(=O)N[C@@H](CC(N)=O)C(=O)N[C@@H](Cc3cccnc3)C(=O)N(C)CC(N)=O)CCOCC2)NC1=O` [compound 189], the EPSA came to 144 A^2.

`CC(=O)N(C)CCCC[C@@H]1NC(=O)[C@H](Cc2c[nH]c3c(C)cccc23)NC(=O)[C@H]([C@@H](C)O)NC(=O)[C@H](CC(=O)N(C)C)NC(=O)[C@@H](NC(=O)CCOCCOCC[N+](C)(C)C)C(C)(C)SSC(C)(C)[C@@H](C(=O)N[C@@H](Cc2ccc(OCC3CCC[N+](C)(C)C3)cc2)C(=O)N[C@@H](Cc2ccc3ccccc3c2)C(=O)NC2(C(=O)N[C@@H](CCCCN(C)C(C)=O)C(=O)N[C@@H](CC(N)=O)C(=O)N[C@@H](Cc3cccnc3)C(=O)N(C)CC(=O)N(C)C)CCOCC2)NC1=O` (stereo partly drawn) [compound 215, cPEG3aCO-Pen(3)-N(N(Me)2)-T-7MeW-K(NMeAc)-Pen(3)-DMMMF-2Nal-THP-K(NMeAc)-N-3Pya-Sar-CON(Me)2] ({Me3N+(CH2)2O(CH2)2O(CH2)2CO}-[Pen]D(NMe2)T[Trp(7-Me)][Lys(Me)](Ac)[Pen]Y(X86)[2Nal][Thp][Lys(Me)](Ac)N[3Pal][Sar]-NMe2; disulfide 1-6): the EPSA turned out to be 145 A^2.

As for `CC(=O)N(C)CCCC[C@@H]1NC(=O)[C@H](Cc2c[nH]c3c(C)cccc23)NC(=O)[C@H]([C@@H](C)O)NC(=O)[C@H](CC(=O)N(C)C)NC(=O)[C@@H](NC(=O)CCOCCOCC[N+](C)(C)C)C(C)(C)SSC(C)(C)[C@@H](C(=O)N[C@@H](Cc2ccc(OC/C=N\OCC[N+](C)(C)C)cc2)C(=O)N[C@@H](Cc2ccc3ccccc3c2)C(=O)NC2(C(=O)N[C@@H](CCCCN(C)C(C)=O)C(=O)N[C@@H](CC(N)=O)C(=O)N[C@@H](Cc3cccnc3)C(=O)N(C)CC(=O)N(C)C)CCOCC2)NC1=O` [compound 306, cPEG3aCO-Pen(3)-N(N(Me)2)-T-7MeW-K(NMeAc)-Pen(3)-Y(OZOXlMECh)-2Nal-THP-K(NMeAc)-N-3Pya-Sar-CON(Me)2] ({Me3N+(CH2)2O(CH2)2O(CH2)2CO}-[Pen]D(NMe2)T[Trp(7-Me)][Lys(Me)](Ac)[Pen]Y(X70)[2Nal][Thp][Lys(Me)](Ac)N[3Pal][Sar]-NMe2; disulfide 1-6), the EPSA worked out at 153 A^2.

Regarding `COCc1cn(-c2ccc(C[C@H](NC(=O)[C@H]3NC(=O)[C@H](CCCCN(C)C(C)=O)NC(=O)[C@H](Cc4c[nH]c5c(C)cccc45)NC(=O)[C@H]([C@@H](C)O)NC(=O)[C@H](CC(=O)N(C)C)NC(=O)[C@@H](NC(=O)CCOCCOCC[N+](C)(C)C)C(C)(C)SSC3(C)C)C(=O)N[C@@H](Cc3ccc4ccccc4c3)C(=O)NC3(C(=O)N[C@@H](CCCCN(C)C(C)=O)C(=O)N[C@@H](CC(N)=O)C(=O)N[C@@H](Cc4cccnc4)C(=O)N(C)CC(=O)N(C)C)CCOCC3)cc2)nn1` [compound 303, cPEG3aCO-Pen(3)-N(N(Me)2)-T-7MeW-K(NMeAc)-Pen(3)-F(4TzlMME)-2Nal-THP-K(NMeAc)-N-3Pya-Sar-CON(Me)2] ({Me3N+(CH2)2O(CH2)2O(CH2)2CO}-[Pen]D(NMe2)T[Trp(7-Me)][Lys(Me)](Ac)[Pen][X67][2Nal][Thp][Lys(Me)](Ac)N[3Pal][Sar]-NMe2; disulfide 1-6), the EPSA was 152 A^2.
